Laboratory results reported in patent publication US20130039956A1, “USE OF NITROCARBOXYLIC ACIDS FOR THE TREATMENT, DIAGNOSIS AND PROPHYLAXIS OF AGGRESSIVE HEALING PATTERNS” (priority 2010, published 2013).

How the values were obtained:
[1] = tested on: pericardial strips; assay: Cold induced injury in a whole tissue ex-vivo model (pericardium); assay type: cell-based, Wistar rats; conditions: control sample incubated with all-caspase inhibitor before cold
Text: To determine whether nitrated fatty acids can be used to preserve cells and tissues from cold or cryoinjury, an in vitro model utilizing murine epicardium was established. The experimental set-up should reduce the possibility of ischemia or reperfusion injury to a minimum, but at the same time allow differentiation of the contribution of ischemia/reperfusion injury-triggered cell death, which is known to occur almost exclusively via apoptosis, whereas cell death induced by cold injury almost exclusively results in necrosis.
The pericardial sac was carefully resected in 24 anesthetized Wistar rats (180-270 g) of either sex. Care was taken to grasp the pericardium with a forceps only at the cutting edges and reduce traumatization of the central portions of the pericardium to a minimum. After resection, the cutting edge and the former apex area of the pericardium were dissected, as to obtain flat tissue strips which were placed immediately in the culture medium (DMEM) containing 10% FCS and antibiotics (penicillin, streptomycin). Tissue samples were cultured in an oxygen atmosphere at 18° C. for 2 days. […] Then the pericardial strips were cut into 4 pieces of equal size. One piece was further cultivated at 37° C. without undergoing the cooling cycles, thus, serving as the control. In each of three investigations, one piece was bathed in a solution (0.9% saline and 1% SDS) containing 200 μmol nitro-fatty acid or contained 200 μmol of the corresponding native fatty acid, for 10 min at a temperature of 18° C. One piece of pericardium was bathed in a solution without fatty acids under otherwise identical conditions. All samples were cooled by continuously decreasing from ambient temperature at a rate of 3° C./min to a minimum temperature of […]. After 1 hour, the samples were rewarmed at a rate of 3° C./min by continuously increasing the temperature until a temperature of 18° C., was achieved. Thereafter an identical cooling and rewarming cycle was performed. After the second cooling cycle, the tissue pieces were further cultured in the culture medium for 1 day allowing continuous adaptation to an ambient temperature of 37° C. For analytical preparations the pericardial pieces were out and further processed. A direct TUNEL assay (Roche) was use for quantification of apoptosis, an annexin V/propidium iodide exclusion assay (Roche) was used to quantify the number of necrotic cells, and viability was determined by the WST-8 assay. Furthermore, the LDH release was quantified in the supernatants.
To rule out that cell death has been induced by ischemia or reperfusion (reoxygenation), in one series of experiments, a control sample was incubated with an all-caspase inhibitor (Q-VD-OPH, BioVision, USA) reconstituted in DMSO before the sample was exposed to cold.

[2] = molecular target: T1, TRPV-1 (Mus musculus, UniProt Q704Y3); assay: Signal transduction of receptors of the TRP-protein family in retinal slices; assay type: cell-based, mice; conditions: preincubation (5 minutes) of TRPV-1 antagonist, saline specimens
T1 construct: Whole retinas were isolated and cut into 100 μm slices using a tissue slicer; from tissue; host or cells: mouse retinal slices (100 μm)
Method: In order to determine the effect of nitrated fatty acids on receptor signal transduction, an in vitro model was used. Retinal slices from cadaver mice were prepared as described by Snellman and Nawy (Snellman J. Nawy S (2004). cGMP-dependent kinase regulates response sensitivity of the mouse on bipolar cell. J Neurosci 24:6621-6628). Whole retinas were isolated and cut into 100 μm slices using a tissue slicer and than transferred to the recording chamber. The chamber was continuously perfused with Ames media and oxygenated. Picrotoxin (100 μM), strychnine (10 μM), and TPMPA (50 μM) were added. Each nitro fatty acid was added in two experiments to achieve a final concentration of 10 μmol, and in another two experiments to achieve a final concentration of 50 μmol. In two experiments, the corresponding native fatty acid was added to achieve a final concentration of 10 and 50 μmol, and in two experiments saline solution was added which served as controls. Currents were measured via tissue electrodes and monitored throughout the investigation. After incubating the solution for 2 hours, the TRPV-1 agonist capsaicin was added to achieve a final concentration of 10 μmol. Experiments were performed using either 10 mmol Hepes or 10 mmol Mes adjusting the pH of the solution to 6.4 or 4.4, respectively. Furthermore, experiments were performed without or with preincubation (5 minutes) of the TRPV-1 antagonist capsazepine. The solution temperature was held constant at 35° C.

T1 sequence (Q704Y3 whole entry): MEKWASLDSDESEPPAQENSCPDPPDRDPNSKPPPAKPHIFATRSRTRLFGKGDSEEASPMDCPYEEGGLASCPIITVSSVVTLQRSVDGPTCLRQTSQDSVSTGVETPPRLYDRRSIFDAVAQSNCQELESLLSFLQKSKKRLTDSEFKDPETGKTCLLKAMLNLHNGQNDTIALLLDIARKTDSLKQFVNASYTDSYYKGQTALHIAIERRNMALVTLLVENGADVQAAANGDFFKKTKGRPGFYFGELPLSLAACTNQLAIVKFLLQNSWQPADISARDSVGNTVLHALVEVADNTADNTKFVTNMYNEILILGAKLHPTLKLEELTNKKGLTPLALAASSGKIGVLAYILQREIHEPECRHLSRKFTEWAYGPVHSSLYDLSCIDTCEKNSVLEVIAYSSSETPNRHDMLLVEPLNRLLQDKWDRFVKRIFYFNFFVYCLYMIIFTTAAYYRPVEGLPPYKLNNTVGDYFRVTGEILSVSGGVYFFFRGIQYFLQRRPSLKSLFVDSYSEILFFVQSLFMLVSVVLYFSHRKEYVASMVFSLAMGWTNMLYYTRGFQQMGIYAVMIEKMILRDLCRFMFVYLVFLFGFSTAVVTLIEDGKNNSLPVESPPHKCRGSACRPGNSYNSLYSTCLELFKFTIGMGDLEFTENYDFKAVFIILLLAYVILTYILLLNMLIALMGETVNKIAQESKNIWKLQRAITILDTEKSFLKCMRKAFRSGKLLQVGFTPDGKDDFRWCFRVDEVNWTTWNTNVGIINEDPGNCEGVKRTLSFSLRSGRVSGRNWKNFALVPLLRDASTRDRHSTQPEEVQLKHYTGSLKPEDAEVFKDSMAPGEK

| capsaicin effect (induced current) [2] | Structure (SMILES) | rate of cells undergoing apoptosis [1] |
| --- | --- | --- |
|  | CC(C)[C@H](NC(=O)c1ccc2ccccc2n1)C(=O)N[C@@H](CC(=O)O)C(=O)COc1c(F)cccc1F [Q-VD-OPH, reference compound] | within the range found in the cold-exposed control samples |
| inhibited | Oc1cc2c(cc1O)CN(C(=S)NCCc1ccc(Cl)cc1)CCC2 [capsazepine, reference compound] |  |
